The values that follow come from patent US4587340A, “Biopterin analogs” (Burroughs Wellcome Co., priority 1984, dated 1986).

The structures appear in SMILES notation.

The test system of one data set is depression. The note with it: several patients; cited from earlier work.
Data set [1] deals with T1, Dihydropteridine reductase (Homo sapiens, UniProt P09417).
T1 sequence (P09417 1-244): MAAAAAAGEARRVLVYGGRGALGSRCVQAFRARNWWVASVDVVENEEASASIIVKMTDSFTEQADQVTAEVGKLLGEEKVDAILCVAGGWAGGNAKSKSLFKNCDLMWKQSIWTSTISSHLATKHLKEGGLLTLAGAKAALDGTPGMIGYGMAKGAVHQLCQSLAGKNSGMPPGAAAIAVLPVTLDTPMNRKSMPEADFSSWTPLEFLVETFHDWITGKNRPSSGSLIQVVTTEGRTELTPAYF
Put plainly: Dihydropteridine reductase assay. Type of data set: biochemical. The note with it: quinonoid dihydro form; biopterin form = 100. Here is the method:
Dihydropteridine reductase was assayed by the method of Craine, et al., (J. Biol. Chem., 247, 6082 (1972)).

The next data set has as its system Parkinson's disease. The note with it: BH4 administration; cited from earlier work.
The target of another data set is T2, bovine liver DHFR (Bos taurus, UniProt P00376).
T2 construct: from tissue; host or cells: bovine liver
T2 sequence (P00376 1-187): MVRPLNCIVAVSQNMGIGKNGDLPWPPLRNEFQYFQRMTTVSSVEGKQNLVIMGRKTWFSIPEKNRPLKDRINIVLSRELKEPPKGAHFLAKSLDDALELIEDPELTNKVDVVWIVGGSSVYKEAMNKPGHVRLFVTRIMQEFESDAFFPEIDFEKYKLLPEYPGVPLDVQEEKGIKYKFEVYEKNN
Put plainly: Dihydrofolate reductase assay. Type of data set: biochemical. The note with it: for Dihydrofolate reductase V: 7,8-dihydro form of the pterin, 7,8-dihydrobiopterin = 100. Here is the method:
These assays were carried out on the 7,8-dihydropterin analogs of the compounds of formula I which were tetrahydropterins. The 7,8-dihydropterins were obtained commercially (in the case of dihydrobiopterin) or synthesized from the corresponding compound of formula I. Synthesis of 7,8-dihydropterins involved the combination of 0.27 μmole of a compound of formula I, 20 μg of horseradish peroxidase, 0.6 μmole of hydrogen peroxide in 0.1 ml of 0.5M potassium phosphate buffer, pH 7.5. After 3 min at room temperature, 10 μg of bovine liver catalase was added. The production of the 7,8-dihydropterin was verified by U.V. spectroscopy.
The assay was carried out with bovine liver DHFR using a modification of the method of Bailey and Ayling (J. Biol. Chem., 253, 1598 (1978)) where the desired dihydropterin replaced dihydrobiopterin, and the HPLC system used consisted of an anaerobic 0.1M acetic acid (with or without 10% acetonitrite) solvent on a 25 cm×4.6 mm Dupont TMS-Zorbax column. In our hands, dihydrobiopterin is reduced at a rate 2.5% that of the natural substrate dihydrofolate.

For data set [2] the following is noted: background statement; cited from earlier work.
For data set [3] the following is noted: background statement; cited from earlier work. The source holds these as a separate data set.
A further data set deals with atypical PKU. The note with it: large quantities; cited from earlier work.
Data set [4] deals with striatal dopamine synthesis, noradrenaline synthesis in peripheral nerves. The note with it: administration of BH4; cited from earlier work.
The next data set deals with T3, Tryptophan hydroxylase (Rattus norvegicus, UniProt Q8CGU9).
T3 construct: The preparation of tryptophan hydroxylase was a crude 30,000xg supernatant; from tissue
T3 sequence (Q8CGU9 1-485): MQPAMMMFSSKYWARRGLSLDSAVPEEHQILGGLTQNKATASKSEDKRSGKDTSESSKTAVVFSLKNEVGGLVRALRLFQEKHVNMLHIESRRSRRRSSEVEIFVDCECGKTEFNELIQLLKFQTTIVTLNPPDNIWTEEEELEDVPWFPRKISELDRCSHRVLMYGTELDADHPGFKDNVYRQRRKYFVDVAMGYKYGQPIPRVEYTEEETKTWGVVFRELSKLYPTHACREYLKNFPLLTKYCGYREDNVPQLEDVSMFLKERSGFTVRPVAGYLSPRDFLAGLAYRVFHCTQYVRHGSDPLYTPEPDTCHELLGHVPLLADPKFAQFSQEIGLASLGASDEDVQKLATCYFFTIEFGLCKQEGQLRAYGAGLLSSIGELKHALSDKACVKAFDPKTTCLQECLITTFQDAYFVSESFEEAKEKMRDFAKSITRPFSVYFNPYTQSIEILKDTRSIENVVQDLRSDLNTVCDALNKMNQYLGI
Put plainly: Tryptophan hydroxylase cofactor assay. The data set is classed as biochemical. The note with it: for Tryptophan hydroxylase Vmax: tetrahydrobiopterin = 100; for Activity for tryptophan hydroxylase: in words. The procedure:
Tryptophan hydroxylase was assayed according to a modification of the method of Renson J., et al (Biochem. Biophys. Acta 25: 504 (1966)).

The target of data set [5] is T4, Phenylalanine hydroxylase (Rattus norvegicus, UniProt P04176).
T4 construct: Phenylalanine hydroxylase was prepared from rat liver using hydrophobic chromatography; from tissue; host or cells: rat liver
T4 sequence (P04176 1-453): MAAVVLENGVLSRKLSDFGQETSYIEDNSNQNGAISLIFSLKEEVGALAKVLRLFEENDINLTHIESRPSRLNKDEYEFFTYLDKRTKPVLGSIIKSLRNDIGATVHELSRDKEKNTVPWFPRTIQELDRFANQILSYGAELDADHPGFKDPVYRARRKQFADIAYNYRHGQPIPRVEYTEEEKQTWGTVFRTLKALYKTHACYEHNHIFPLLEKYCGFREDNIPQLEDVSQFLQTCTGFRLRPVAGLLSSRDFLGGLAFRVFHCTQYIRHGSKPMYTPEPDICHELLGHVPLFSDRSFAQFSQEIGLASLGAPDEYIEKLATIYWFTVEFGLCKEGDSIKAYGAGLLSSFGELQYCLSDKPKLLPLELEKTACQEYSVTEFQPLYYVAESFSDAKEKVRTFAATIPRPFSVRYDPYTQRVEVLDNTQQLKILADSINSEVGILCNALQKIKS
Put plainly: Phenylalanine hydroxylase cofactor assay. The data set is classed as biochemical. The note with it: for Phenylalanine hydroxylase Vmax: tetrahydrobiopterin = 100.

The next data set addresses Tyrosine hydroxylase (Homo sapiens, UniProt P07101). Put plainly: Tyrosine hydroxylase cofactor assay. Type of data set: biochemical. The procedure:
Tyrosine hydroxylase was partially purified through a 25-45% ammonium sulfate fraction. […] The enzyme was assayed by a modification of the method of Nagatsu, T., Levitt, M., and Udenfriend, S. (Anal. Biochem. 9, 122, (1964)) where the Dowex chromatography step was replaced by a charcoal extraction.

Chain of Tyrosine hydroxylase (P07101 whole entry): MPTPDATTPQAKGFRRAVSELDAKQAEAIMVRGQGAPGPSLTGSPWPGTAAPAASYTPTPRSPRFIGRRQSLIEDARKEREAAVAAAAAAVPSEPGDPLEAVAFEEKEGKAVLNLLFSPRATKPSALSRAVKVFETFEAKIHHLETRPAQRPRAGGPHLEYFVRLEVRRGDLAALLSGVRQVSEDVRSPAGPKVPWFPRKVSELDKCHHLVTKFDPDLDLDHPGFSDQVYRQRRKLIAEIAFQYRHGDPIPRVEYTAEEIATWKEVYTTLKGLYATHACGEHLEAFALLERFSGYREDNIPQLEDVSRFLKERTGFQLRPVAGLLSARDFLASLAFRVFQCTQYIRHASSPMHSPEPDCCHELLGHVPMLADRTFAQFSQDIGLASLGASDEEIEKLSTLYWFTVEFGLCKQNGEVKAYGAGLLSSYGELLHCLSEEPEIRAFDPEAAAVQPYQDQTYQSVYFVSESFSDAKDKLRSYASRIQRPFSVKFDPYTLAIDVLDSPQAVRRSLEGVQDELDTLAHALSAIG

Regarding `C[C@H](O)[C@H](O)[C@H]1CNc2nc(N)[nH]c(=O)c2N1` [Tetrahydrobiopterin], in the data set with depression, the Symptoms of depression entry is recorded as “improve the symptoms of depression”. For the same molecule, in data set [1], the “Dihydropteridine reductase Vmax” value is on record as 100%. Also, in the data set on Parkinson's disease, the “Symptoms of Parkinson's disease” value is “improve the symptoms of Parkinson's disease”. In addition, the “Dihydrofolate reductase V” value on bovine liver DHFR was 100%. Besides, in data set [2], the Brain penetration result is recorded as “penetrates brain poorly”. Besides, the Stability entry in data set [3] is listed as “unstable”. Also, the “Treatment of atypical PKU” value with atypical PKU is given as “successfully treated”. Further, in data set [4], the “Noradrenaline synthesis in peripheral nerves” value was “nearly double” and the Striatal dopamine synthesis entry is listed as “nearly double”. For the same molecule, the “Specific activity of tryptophan hydroxylase with the cofactor” value on Tryptophan hydroxylase (37°, crude 30,000xg supernatant) is “approximately 100 pmol product per milligram protein per minute”. Further, the “Tryptophan hydroxylase Vmax” value at Tryptophan hydroxylase turned out to be 100%. In data set [5] (37°, rat liver enzyme), the “Specific activity of phenylalanine hydroxylase with the co-factor” value is 1.0 μmol/mg protein per minute. Further, the “Substrate inhibition of phenylalanine hydroxylase by large amounts of phenylalanine” value in data set [5] (in words) is “large amounts of phenylalanine inhibit phenylalanine hydroxylase”. For the same molecule, the “Phenylalanine hydroxylase Vmax” value in data set [5] is listed as 100%. For the same molecule, the “Specific activity of tyrosine hydroxylase preparation with the cofactor” value on Tyrosine hydroxylase (25-45% ammonium sulfate fraction) is on record as 4.0 nmole/mg protein (min). In addition, the “Tyrosine hydroxylase Vmax” value on Tyrosine hydroxylase (tetrahydrobiopterin = 100) worked out at 100%.
Turning to `CC(O)C(O)C1=Nc2c(nc(N)[nH]c2=O)NC1` (stereo not drawn) [7,8-Dihydrobiopterin], at bovine liver DHFR (bovine liver DHFR), the “Rate of reduction by DHFR relative to dihydrofolate, the natural substrate” value is 2.5%.
As for `COCC1CNc2nc(N)[nH]c(=O)c2N1` (racemic) [6-Methoxymethyl-tetrahydropterin, (+-)-2-Amino-5,6,7,8-tetrahydro-6-methoxymethyl-4(3H)-pteridinone], the “Dihydrofolate reductase V” value at bovine liver DHFR came out at 800%. The “Tryptophan hydroxylase Vmax” value at Tryptophan hydroxylase is listed as 54%. For the same molecule, the “Phenylalanine hydroxylase Vmax” value in data set [5] worked out at 79%.
With `CCCCOCC1CNc2nc(N)[nH]c(=O)c2N1` (racemic) [R=C4 H9, (+-)-2-Amino-5,6,7,8-tetrahydro-6-n-butoxymethyl-4(3H)-pteridinone], the “Activity for tryptophan hydroxylase” value at Tryptophan hydroxylase is “successively less active”. In data set [5] (in words), the “Activity for phenylalanine hydroxylase” value is given as “successively less active”. Also, the “Specificity for tyrosine hydroxylase” value on Tyrosine hydroxylase (versus tryptophan and phenylalanine hydroxylases) was “greatest specificity”.
For `CCCOCC1CNc2nc(N)[nH]c(=O)c2N1` (stereo not drawn) [R=C3 H7], the “Activity for tryptophan hydroxylase” value at Tryptophan hydroxylase is “successively less active”. In [5] (in words), the “Activity for phenylalanine hydroxylase” value is “successively less active”.
For `CCCCCCCCOCC1CNc2nc(N)[nH]c(=O)c2N1` (stereo not drawn) [C8 H17], the “Activity for tryptophan hydroxylase” value on Tryptophan hydroxylase was “successively less active”. Besides, the “Activity for phenylalanine hydroxylase” value in data set [5] (in words) is given as “successively less active”.
Take `CCOCC1CNc2nc(N)[nH]c(=O)c2N1` (racemic) [R=C2 H5, (+-)-2-Amino-5,6,7,8-tetrahydro-6-ethoxymethyl-4(3H)-pteridinone]: at Tryptophan hydroxylase, the “Activity for tryptophan hydroxylase” value was “active”. The “Activity for phenylalanine hydroxylase” value in [5] (in words) was “active”. Further, the “Activity for tyrosine hydroxylase” value at Tyrosine hydroxylase (in words) is “active”.
